# Assay results reported in patent US6656690B2, “Mass spectrometric methods for biomolecular screening” (priority 1998, dated 2003).
# What was measured:
# 16S A site 27mer RNA = experiment: ESI-FTICR mass spectrometric (MASS) binding assay, 16S A-site 27-mer RNA model; design: species or system prokaryotic
# Protocol: (§1) The ESI-FTICR mass spectrum depicted in FIG. 26 was acquired from a […] mixture of untagged 16S and tagged 18S in the presence of an equimolar mixture of five aminoglycosides. It is to be understood that other biomolecules may be used in place of the aminoglycosides. The aminoglycosides have been selected from two classes of 2-deoxystreptamines: 4,5-disubstituted (paromomycin, and lividomycin), and 4,6-disubstituted (tobramycin, sisomicin, and bekanamycin), present at 500 nM each. Complexes corresponding to 1:1 binding of individual aminoglycosides were observed between 16S and all members of the aminoglycoside mixture, with the apparent affinities estimated from the abundances of the respective complexes differing substantially. Signal intensities from the complexes with paromomycin (m/z 1925.572) and lividomycin (m/z 1954.790) are consistent with MS-measured dissociation constants of 110 nM and 28 nM, respectively. The intensities of 16S complexes with tobramycin (m/z 1895.960), bekanamycin (m/z 1899.171), and sisomicin (m/z 1891.972) were reduced, consistent with solution dissociation constants of […]. Wang, et al., Biochemistry, 1997, 36, 768-779. […] The spectrum is calibrated using multiple isotope peaks of the (M-5H^+)^5− and (M-4H^+)^4− charge states of the free RNA as internal mass standards which brackets the m/z range in which complexes are observed. The average mass measurement error obtained for the complexes in FIG. 26 is 2.1 ppm when m/z differences are measured between the most abundant (4 ^13C) isotope peak of 16S and each complex. This post calibration scheme is easily automated which enables rapid, high precision mass measurements of affinity selected ligands against multiple targets in a high throughput mode.
# A preferred first step of MASS screening involves mixing the RNA target (or targets) with a combinatorial library of ligands designed to bind to a specific site on the target molecule(s). Specific noncovalent complexes formed in solution between the target(s) and any library members are transferred into the gas phase and ionized by ESI. As described herein, from the measured mass difference between the complex and the free target, the identity of the binding ligand can be determined. The dissociation constant of the complex can be determined in two ways: if a ligand with a known binding affinity for the target is available, a relative Kd can be measured by using the known ligand as an internal control and measuring the abundance of the unknown complex to the abundance of the control, alternatively, if no internal control is available, Kd's can be determined by making a series of measurements at different ligand concentrations and deriving a Kd value from the “titration” curve.
# Electrospray ionization Fourier transform ion cyclotron resonance mass spectrometry was performed on a solution containing […] 16S RNA (the 27-mer construct shown in FIG. 24) and 500 nM paromomycin is depicted in FIG. 13. A 1:1 complex was observed between the paromomycin and the RNA consistent with specific aminoglycoside binding at the A-site. The insets show the measured and calculated isotope envelopes of the (M-5H+)5− species of the free RNA and the RNA-paromomycin complex. High precision mass measurements were acquired using isotope peaks of the (M-5H+)^5− and (M-4H^+)^4− charge states of the free RNA as internal mass standards and measuring the m/z difference between the free and bound RNA.
# ESI-MS measurements of a solution containing a fixed concentration of RNA at different concentrations of ligand were obtained. By measuring the ratio of bound:unbound RNA at varying ligand concentrations, the Kd was determined by 1/slope of the “titration curve”. The MS derived value of 110 nM is in good agreement with previously reported literature value of 200 nM. […]
# 18S A site model = experiment: ESI-FTICR mass spectrometric (MASS) binding assay, mass-tagged 18S A-site 27-mer RNA model; design: species or system eukaryotic; settings: aminoglycosides 500 nM each, mixture with untagged 16S and tagged 18S
# Protocol: as §1, with “The” for “The spectrum is calibrated using multiple isotope peaks of the (M-5H^+)^5− and (M-4H^+)^4− charge states of the free RNA as internal mass standards which brackets the m/z range in which complexes are observed. The”, “This post calibration scheme is easily automated which enables rapid, high precision mass measurements of affinity selected ligands against multiple targets in a high throughput mode.” left out
smiles,measurement,setting,value
NC[C@@H]1O[C@H](O[C@H]2[C@@H](O)[C@H](O[C@@H]3[C@@H](O)[C@H](N)C[C@H](N)[C@H]3O[C@H]3O[C@H](CO)[C@@H](O)[C@H](O)[C@H]3N)O[C@@H]2CO)[C@H](N)[C@@H](O)[C@@H]1O [paromomycin],Kd,"16S A site 27mer RNA; ESI-FTICR MS, 16S A site 27mer, read-out: MS-measured dissociation constant (KD)",110 nM
same,complexes observed with 16S (in words),"16S A site 27mer RNA; aminoglycosides 500 nM each, mixture with untagged 16S and tagged 18S",1:1 complex and High affinity complexes
same,complexes observed with 18S (in words),18S A site model,complete absence of complexes
